# Assays:
# [1] = test system: Malme-3M, UAC257 and UACC62 human melanoma cell lines; experiment: RT-qPCR of POMC after forskolin treatment, human melanoma cell lines; format: cell-based; settings: 20 μM forskolin; human samples
# Experimental: (§1) UACC62 and UAC257 human melanoma cells were obtained from NCI and grown in RPMI (Cellgro) medium supplemented with 10% fetal bovine serum and penicillin/streptomycin/L-glutamine. Malme-3M human melanoma and B16 mouse melanoma cell line were obtained from ATCC and grown in DEMEM (Cellgro) medium supplemented with 5% fetal bovine serum and 1% penicillin/streptomycin/L-glutamine. Melan-a cells were kindly provided by Dorothy C. Bennett and were grown in Ham's F10 medium supplemented with 10% fetal bovine serum and 1% penicillin/streptomycin/L-glutamine. The mouse keratinocyte cell line PAM212 was generously shared by Dr. Paolo Dotto (Massachusetts General Hospital and Harvard Medical School, Boston, Mass.) and grown in 10% fetal bovine serum and 1% penicillin/streptomycin/L-glutamine. Cells were grown to 70% confluence prior to use in experiments in humidified incubators supplemented with 5% CO2.
# (§2) After forskolin (Sigma) treatment at 20 μM final concentration at the stated times, mRNA was isolated using RNeasy® plus minikits from Qiagen, and was subjected to KAPA SYBR® FAST One-Step qRT-PCR (Kapa Biosystems). For each reaction, 100 ng of RNA was subjected to the following steps: reverse transcription for 30 min at 48° C., inactivation for 10 min at 95° C., expansion for 40 cycles (15 sec at 95° C. and 30 sec at 60° C.). The results are the average of three independent experiments. […]
# β-endorphin = experiment: Plasma β-endorphin after topical forskolin treatment; format: in vivo; settings: male mice, non-K14-SCF vs K14-SCF/Mc1r^e/e
# Experimental: Blood samples from mice were collected in EDTA microvotte tubes containing 0.6 UTI aprotinin (Sigma). Samples were spun at 3500 rpm at 4° C. for 20 min and the plasma (top layer) was isolated and transferred to a new tube and stored at −80° C. until β-endorphin measurement was performed. β-Endorphin was measured using a radioimmunoassay from Phoenix Pharmaceuticals, following the manufacturer's instructions.
# All experiments were done in C57BL/6J (Jackson laboratory) mice. C57BL/6J Mc1r^e/e (described at Robbins L S, et al., Pigmentation phenotypes of variant extension locus alleles result from point mutations that alter MSH receptor function. Cell. 1993 Mar. 26; 72(6) 72, 827-834.) were crossed with K14-Scf transgenic mice as previously reported (Kunisada T, et. al., Development. 1998 August; 125(15):2915-23.). Mice were 8 weeks old at the start of each experiment.
# A crude extract of Coleus forskohlii root preparation was used as a working source of forskolin (ATZ Natural, Edgewater, N.J.) for the topical treatment of this drug (Lin C B, et. al., Modulation of microphthalmia-associated transcription factor gene expression alters skin pigmentation. J Invest Dermatol 119, 1330-1340 (2002)). […] Samples were processed and β-endorphin was measured.
# [2] = test system: B16, B16-F0, Melan-a and PAM212 mouse cell lines; experiment: RT-qPCR of POMC and Mitf after forskolin treatment, mouse cell lines; format: cell-based; settings: 20 μM forskolin; mouse cells
# Experimental: as §1, §2
# mice = experiment: Conditioned place preference testing with i.v. β-endorphin; format: in vivo; settings: i.v. tail vein
# Description: To test whether it is plausible that skin-derived β-endorphin may cause central effects we decided to assess whether peripherally administered β-endorphin injected i.v. into the tail vein could cause conditioned place preference.
Compound,time point of increase of POMC after treatment [1] [h],"β-endorphin fold induction, comparison of genotypes (β-endorphin)",time of peak Mitf mRNA expression after treatment [2] [h],time of peak POMC mRNA expression after treatment [2] [h],conditioned place preference (time spent in the white box) (mice)
C=C[C@@]1(C)CC(=O)[C@]2(O)[C@@]3(C)[C@@H](O)CCC(C)(C)[C@@H]3[C@H](O)[C@H](OC(C)=O)[C@@]2(C)O1 [forskolin],2 to 4,higher fold induction in the non-K14-SCF mice compared to the K14-SCF/Mc1r^e/e,2,8,
"β-endorphin (YGGFMTSEKSQTPLVTLFKNAIIKNAYKKGE; Beta-endorphin; UniProt P01189 237-267, looked up) [endogenous opioid peptide, administered i.v. through the tail vein]",,,,,spent more time in the white box after conditioning
